According to publication PMC10150366, “Discovery of an In Vivo Chemical Probe for BCL6 Inhibition by Optimization of Tricyclic Quinolinones” (Journal of Medicinal Chemistry, 2023):

Assays:
[1] = target: HTR1B (Homo sapiens, UniProt P28222); assay: SAFETYscan cAMP HTR1B Antagonist; format: cell-based
From the text: (§1) Supplement jm3c00155_si_002.xlsx, sheet "SAFETYScan" | column: RC50 (uM); Max Response

[2] = target: T1, CHRM1 (Homo sapiens, UniProt P11229); assay: SAFETYscan Calcium Flux CHRM1 Antagonist; format: cell-based
T1 sequence (P11229 1-460): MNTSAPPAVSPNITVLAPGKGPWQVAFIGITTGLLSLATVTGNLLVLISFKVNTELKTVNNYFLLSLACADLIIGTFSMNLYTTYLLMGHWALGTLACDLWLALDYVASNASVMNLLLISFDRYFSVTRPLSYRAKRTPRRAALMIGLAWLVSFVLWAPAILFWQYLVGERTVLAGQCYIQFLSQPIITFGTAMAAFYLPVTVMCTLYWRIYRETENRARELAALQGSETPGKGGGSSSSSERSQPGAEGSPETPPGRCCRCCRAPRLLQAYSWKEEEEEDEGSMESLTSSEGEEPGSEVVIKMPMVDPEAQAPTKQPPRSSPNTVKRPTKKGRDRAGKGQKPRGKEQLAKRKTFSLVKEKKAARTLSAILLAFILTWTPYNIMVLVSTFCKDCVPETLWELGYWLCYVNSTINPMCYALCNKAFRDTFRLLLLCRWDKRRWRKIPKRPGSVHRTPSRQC
From the text: as §1

[3] = target: KvLQT1/minK (Homo sapiens, UniProt P51787); assay: SAFETYscan Ion Channel KvLQT1/minK Blocker; format: cell-based
From the text: as §1

[4] = target: OPRM1 (Homo sapiens, UniProt P35372); assay: SAFETYscan cAMP OPRM1 Antagonist; format: cell-based
Sequence of OPRM1 (P35372 whole entry): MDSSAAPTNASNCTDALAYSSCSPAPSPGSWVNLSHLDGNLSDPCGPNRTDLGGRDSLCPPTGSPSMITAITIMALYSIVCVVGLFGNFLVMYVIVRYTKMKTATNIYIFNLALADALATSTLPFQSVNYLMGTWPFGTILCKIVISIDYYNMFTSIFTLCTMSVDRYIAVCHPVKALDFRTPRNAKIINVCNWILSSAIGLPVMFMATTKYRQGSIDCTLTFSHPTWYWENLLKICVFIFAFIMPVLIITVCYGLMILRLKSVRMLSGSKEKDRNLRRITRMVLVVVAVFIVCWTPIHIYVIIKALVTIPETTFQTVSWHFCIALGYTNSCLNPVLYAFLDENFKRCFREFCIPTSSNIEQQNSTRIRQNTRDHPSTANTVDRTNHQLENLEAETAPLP
From the text: (§2) Supplement jm3c00155_si_002.xlsx, sheet "SAFETYScan" | column: RC50 (uM); Hill; Max Response

[5] = target: DRD1 (Homo sapiens, UniProt P21728); assay: SAFETYscan cAMP DRD1 Antagonist; format: cell-based
Sequence of DRD1 (P21728 whole entry): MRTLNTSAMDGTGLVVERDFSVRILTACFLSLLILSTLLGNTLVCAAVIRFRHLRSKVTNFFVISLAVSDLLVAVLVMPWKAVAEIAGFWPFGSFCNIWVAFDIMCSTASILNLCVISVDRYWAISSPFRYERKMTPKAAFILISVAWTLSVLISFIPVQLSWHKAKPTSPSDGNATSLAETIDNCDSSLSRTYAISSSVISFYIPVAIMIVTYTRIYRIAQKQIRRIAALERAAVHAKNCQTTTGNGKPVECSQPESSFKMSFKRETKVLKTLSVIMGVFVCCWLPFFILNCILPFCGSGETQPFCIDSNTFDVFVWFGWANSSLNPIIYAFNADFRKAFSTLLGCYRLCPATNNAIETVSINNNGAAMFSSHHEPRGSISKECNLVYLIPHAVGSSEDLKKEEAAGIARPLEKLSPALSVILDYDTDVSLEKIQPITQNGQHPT
From the text: as §2

[6] = target: OPRK1 (Homo sapiens, UniProt P41145); assay: SAFETYscan cAMP OPRK1 Antagonist; format: cell-based
Sequence of OPRK1 (P41145 whole entry): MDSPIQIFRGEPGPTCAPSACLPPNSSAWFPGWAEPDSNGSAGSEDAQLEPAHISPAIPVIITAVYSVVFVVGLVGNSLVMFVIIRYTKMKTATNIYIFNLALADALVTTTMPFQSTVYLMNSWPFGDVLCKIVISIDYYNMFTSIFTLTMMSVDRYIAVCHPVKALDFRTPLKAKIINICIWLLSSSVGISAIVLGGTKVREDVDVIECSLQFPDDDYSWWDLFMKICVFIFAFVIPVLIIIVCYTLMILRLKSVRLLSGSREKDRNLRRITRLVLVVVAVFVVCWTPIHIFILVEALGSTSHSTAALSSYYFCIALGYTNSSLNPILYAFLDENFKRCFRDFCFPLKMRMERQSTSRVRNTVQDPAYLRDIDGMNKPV
From the text: as §1

[7] = target: ADRB2 (Homo sapiens, UniProt P07550); assay: SAFETYscan cAMP ADRB2 Agonist; format: cell-based
Sequence of ADRB2 (P07550 whole entry): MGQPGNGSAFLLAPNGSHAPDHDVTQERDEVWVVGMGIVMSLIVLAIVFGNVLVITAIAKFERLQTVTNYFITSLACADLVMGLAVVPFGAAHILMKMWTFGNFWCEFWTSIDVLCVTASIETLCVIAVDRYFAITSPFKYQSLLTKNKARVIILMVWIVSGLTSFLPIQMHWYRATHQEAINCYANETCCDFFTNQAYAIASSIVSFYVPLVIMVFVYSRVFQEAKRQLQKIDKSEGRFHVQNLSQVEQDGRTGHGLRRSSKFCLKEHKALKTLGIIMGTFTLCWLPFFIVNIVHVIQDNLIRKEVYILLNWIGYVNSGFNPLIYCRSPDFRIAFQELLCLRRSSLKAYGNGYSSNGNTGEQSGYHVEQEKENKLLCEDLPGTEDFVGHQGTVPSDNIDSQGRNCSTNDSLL
From the text: as §1

[8] = target: T2, HTR2A (Homo sapiens, UniProt P28223); assay: SAFETYscan Calcium Flux HTR2A Antagonist; format: cell-based
T2 sequence (P28223 whole entry): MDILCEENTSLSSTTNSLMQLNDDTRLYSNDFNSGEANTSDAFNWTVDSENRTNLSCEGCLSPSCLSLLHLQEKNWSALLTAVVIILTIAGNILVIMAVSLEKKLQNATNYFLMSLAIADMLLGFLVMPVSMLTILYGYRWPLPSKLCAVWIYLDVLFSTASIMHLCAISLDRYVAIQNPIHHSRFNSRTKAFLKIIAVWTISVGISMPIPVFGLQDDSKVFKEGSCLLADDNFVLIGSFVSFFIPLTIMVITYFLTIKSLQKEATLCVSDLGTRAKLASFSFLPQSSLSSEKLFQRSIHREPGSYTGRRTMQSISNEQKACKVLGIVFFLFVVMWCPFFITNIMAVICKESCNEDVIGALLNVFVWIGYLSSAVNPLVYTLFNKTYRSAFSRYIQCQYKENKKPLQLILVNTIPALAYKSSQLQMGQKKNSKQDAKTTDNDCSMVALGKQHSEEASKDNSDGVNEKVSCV
From the text: as §1

[9] = target: T2, HTR2A; assay: SAFETYscan Calcium Flux HTR2A Agonist; format: cell-based
From the text: as §1

[10] = system: ARID3A mRNA; assay: ARID3A mRNA in Karpas 422 tumour xenografts (quantitative RT-PCR); format: in vivo, mouse; details: 50 mg/kg PO, 12 h post dose, TaqMan PCR
Description: frozen in liquid nitrogen, dedicating one half to PK analysis and the other half to pharmacodynamic analysis (PD). All frozen material was permanently stored in a -80°C freezer.
5.3.5 Tumour lysis and Wes method
Tumours were lysed in lysis buffer (50 mM Tris-HCl, pH 7.4, 150 mM NaCl, 1% Triton X-100 (v/v), 1 mM PMSF, 1 mM activated sodium vanandate, 1 mM EDTA, phosphatase inhibitors 2 and 3 (1:50m dilution) and protease cocktail (1:100 dilution)) using reinforced homogenizing tubes containing metal beads using a Precellys 24 with cryolys cooling at 6000 rpm, 2 × 20 s (Stretton Scientific). Lysates were incubated on ice for 15 minutes, spun at 14000 rpm at 4 °C for 10 minutes and supernatants collected and aliquoted.
Samples were stored at -80 °C until use. Protein concentration was determined by diluting 1:10 with lysis buffer and measuring on Direct Detect® spectrometer according to manufacturer’s instructions.
Protein lysates were diluted to 0.0875 mg/ml with 0.1x sample buffer and run on Wes 12-230 kDa kit according to manufacturer’s instructions (ProteinSimple) with multiplexing BCL6 (CST14895 at 1:150 dilution) and GAPDH (CST 2118 at 1:50 dilution). Data was analysed using Compass for SW software. […]
5.3.6 Quantitative RT-PCR […]
(ThermoFisher Scientific). ARID3A expression relative to vehicle-treated tumours was determined using […]

[11] = target: T3, ADRA1A (Homo sapiens, UniProt P35348); assay: SAFETYscan Calcium Flux ADRA1A Agonist; format: cell-based
T3 sequence (P35348 1-466): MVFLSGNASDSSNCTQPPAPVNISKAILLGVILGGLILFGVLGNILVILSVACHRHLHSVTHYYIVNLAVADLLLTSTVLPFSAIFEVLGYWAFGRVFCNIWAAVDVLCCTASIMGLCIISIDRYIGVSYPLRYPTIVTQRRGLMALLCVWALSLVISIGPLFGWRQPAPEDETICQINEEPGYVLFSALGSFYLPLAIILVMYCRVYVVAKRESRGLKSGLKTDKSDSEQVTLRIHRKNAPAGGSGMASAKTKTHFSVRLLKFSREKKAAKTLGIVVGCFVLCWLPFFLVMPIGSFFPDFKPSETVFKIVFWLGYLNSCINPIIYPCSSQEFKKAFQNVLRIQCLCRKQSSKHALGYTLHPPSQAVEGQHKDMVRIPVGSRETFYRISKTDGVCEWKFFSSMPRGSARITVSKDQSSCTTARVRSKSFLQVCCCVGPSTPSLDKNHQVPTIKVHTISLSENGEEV
From the text: as §1

Sequence of HTR1B (P28222 whole entry): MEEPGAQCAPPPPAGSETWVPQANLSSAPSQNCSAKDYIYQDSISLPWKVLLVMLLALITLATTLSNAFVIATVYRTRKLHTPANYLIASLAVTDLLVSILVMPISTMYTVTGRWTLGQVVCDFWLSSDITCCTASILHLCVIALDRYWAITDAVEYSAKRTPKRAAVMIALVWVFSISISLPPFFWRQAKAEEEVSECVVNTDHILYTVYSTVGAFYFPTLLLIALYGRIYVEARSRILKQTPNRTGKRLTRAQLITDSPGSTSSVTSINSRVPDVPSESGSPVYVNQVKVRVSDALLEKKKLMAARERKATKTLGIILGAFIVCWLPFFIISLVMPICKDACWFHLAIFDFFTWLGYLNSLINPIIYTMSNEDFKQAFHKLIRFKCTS

Cn1c(=O)c2c(c3cc(Nc4ccnc(F)c4Cl)ccc31)N[C@@H](C1CC1)C(F)(F)CO2 [compound 17, (S)-10-((3-chloro-2-fluoropyridin-4-yl)amino)-2-cyclopropyl-3,3-difluoro-7-methyl-1,2,3,4-tetrahydro-[1,4]oxazepino[2,3-c]quinolin-6(7H)-one]
IC50 [1]: > 10 µM | Emax ([1]; HTR1B, cAMP, Antagonist, read-out: Max Response): 0% | IC50 [2]: > 10 µM | Emax ([2]; CHRM1, Calcium Flux, Antagonist, read-out: Max Response): 1.21% | Emax ([3]; read-out: Max Response): 12.6% | IC50 ([3]; read-out: RC50 (IC50)): > 10 µM | IC50 [4]: 4.36 µM | Hill ([4]; OPRM1, cAMP, Antagonist): 0.72 | Emax ([4]; OPRM1, cAMP, Antagonist, read-out: Max Response): 56.3% | IC50 [5]: 2.58 µM | Hill ([5]; DRD1, cAMP, Antagonist): 1.27 | Emax ([5]; DRD1, cAMP, Antagonist, read-out: Max Response): 82.7% | IC50 [6]: > 10 µM | Emax ([6]; OPRK1, cAMP, Antagonist, read-out: Max Response): 0.95% | Emax ([7]; read-out: Max Response): 0% | EC50 ([7]; read-out: RC50 (EC50)): > 10 µM | IC50 [8]: > 10 µM | Emax ([8]; HTR2A, Calcium Flux, Antagonist, read-out: Max Response): 5.28% | EC50 [9]: > 10 µM | Emax ([9]; HTR2A, Calcium Flux, Agonist, read-out: Max Response): 2.33% | ARID3A mRNA expression in tumor xenografts [10]: significant increase in ARID3A mRNA expression | EC50 [11]: > 10 µM | Emax ([11]; ADRA1A, Calcium Flux, Agonist, read-out: Max Response): 0%
